Reference: ChEMBL document CHEMBL1240297 (Cancer Res, 2005)
Active and inactive are the calls of the source. No cut-off for these calls is given here. Where a SMILES comes first, the peptide text is derived from it. The star is where a group is joined. Cbz = O=C(OCc1ccccc1)*

Tests used:
LP-1 [1] = experiment: Induction of apoptosis in human LP-1 cells assessed as increase in level of cleaved PARP at 300 nM after 16 hrs by immunoblotting; format: functional, cell-based
LP-1 [2] = experiment: Induction of apoptosis in human LP-1 cells assessed as reduction of Mcl-1 protein level at 300 nM after 16 hrs by immunoblotting; format: functional, cell-based
U-266 = experiment: Cytotoxicity against human U266 cells after 72 hrs by alamar blue assay; format: functional, cell-based; conditions: U-266, 72 h
NCI-H929 [3] = experiment: Induction of apoptosis in human NCI-H929 cells assessed as increase in level of cleaved PARP at 60 uM after 5 hrs by immunoblotting; format: functional, cell-based
LP-1 [4] = experiment: Cytotoxicity against human LP-1 cells after 72 hrs by alamar blue assay; format: functional, cell-based; conditions: LP-1, 72 h
NCI-H929 [5] = experiment: Induction of apoptosis in human NCI-H929 cells assessed as reduction of total RNA polymerase 2 level at 60 uM after 1.5 hrs by immunoblotting; format: functional, cell-based
NCI-H929 [6] = experiment: Induction of apoptosis in human NCI-H929 cells assessed as reduction of Hdm2 level at 60 uM after 1.5 hrs by immunoblotting; format: functional, cell-based
NCI-H929 [7] = experiment: Induction of apoptosis in human NCI-H929 cells assessed as […] slow migrating hyperphosphorylated RNA polymerase 2O form at 60 uM after 1.5 hrs by immunoblotting; format: functional, cell-based
[8] = Selectivity ratio of IC50 for CDK9/cyclin T to IC50 for CDK7/cyclin H
NCI-H929 [9] = experiment: Induction of apoptosis in human NCI-H929 cells assessed as reduction of Mcl-1 protein level at 60 uM after 3 hrs by immunoblotting; format: functional, cell-based
NCI-H929 [10] = experiment: Induction of apoptosis in human NCI-H929 cells assessed as increase of p53 accumulation at 60 uM after 1.5 hrs by immunoblotting; format: functional, cell-based
NCI-H929 [11] = experiment: Induction of apoptosis in human NCI-H929 cells assessed as reduction of RNA polymerase 2 phosphoserine 5 level at 60 uM after 1.5 hrs by immunoblotting; format: functional, cell-based
NCI-H929 [12] = experiment: Induction of apoptosis in human NCI-H929 cells assessed as dephosphorylation of pRb at S249/T252 at 60 uM after 1.5 hrs by immunoblotting; format: functional, cell-based
NCI-H929 [13] = experiment: Induction of apoptosis in human NCI-H929 cells assessed as dephosphorylation of pRb at S249/T252 at 60 uM after 8 hrs by immunoblotting; format: functional, cell-based
OPM-2 = experiment: Cytotoxicity against human OPM2 cells after 72 hrs by alamar blue assay; format: functional, cell-based; conditions: OPM-2, 72 h
NCI-H929 [14] = experiment: Induction of apoptosis in human NCI-H929 cells assessed as reduction of RNA polymerase 2 phosphoserine 2 level at 60 uM after 1.5 hrs by immunoblotting; format: functional, cell-based
NCI-H929 [15] = experiment: Induction of apoptosis in human NCI-H929 cells assessed as changes in survivin protein level at 60 uM after 3 hrs by immunoblotting; format: functional, cell-based
[16] = Selectivity ratio of IC50 for CDK9/cyclin T to IC50 for CDK2/cyclin E
NCI-H929 [17] = experiment: Induction of apoptosis in human NCI-H929 cells assessed as changes in Bcl-2 protein level at 60 uM after 3 hrs by immunoblotting; format: functional, cell-based
NCI-H929 [18] = experiment: Induction of apoptosis in human NCI-H929 cells assessed as fast migrating hypophosphorylated RNA polymerase 2A form at 60 uM after 1.5 hrs by immunoblotting; format: functional, cell-based
[19] = Cytotoxicity against human NCI-H929 cells after 72 hrs by alamar blue assay; format: functional, cell-based; conditions: NCI-H929, 72 h
NCI-H929 [20] = experiment: Induction of apoptosis in human NCI-H929 cells assessed as changes in XIAP protein level at 60 uM after 3 hrs by immunoblotting; format: functional, cell-based
[21] = Cytotoxicity against human RPM18226 cells after 72 hrs by alamar blue assay; format: functional, cell-based; conditions: RPMI-8226, 72 h
NCI-H929 [22] = experiment: Induction of apoptosis in human NCI-H929 cells assessed as increase of p53 accumulation at 30 uM after 1.5 hrs by immunoblotting; format: functional, cell-based
[23] = Inhibition of CDK9/cyclin T
RPMI-8226 [24] = experiment: Induction of apoptosis in human RPM18226 cells assessed as reduction of Mcl-1 protein level at 30 uM after 3 hrs by immunoblotting; format: functional, cell-based
NCI-H929 [25] = experiment: Induction of apoptosis in human NCI-H929 cells assessed as fast migrating hypophosphorylated RNA polymerase 2A form at 30 uM after 1.5 hrs by immunoblotting; format: functional, cell-based
NCI-H929 [26] = experiment: Induction of apoptosis in human NCI-H929 cells at 30 uM after 3 hrs using TUNEL staining by flow cytometry; format: functional, cell-based
NCI-H929 [27] = experiment: Induction of apoptosis in human NCI-H929 cells assessed as reduction of RNA polymerase 2 phosphoserine 2 level at 30 uM after 1.5 hrs by immunoblotting; format: functional, cell-based
LP-1 [28] = experiment: Induction of apoptosis in human LP-1 cells assessed as reduction of RNA polymerase 2 phosphoserine 2 level at 30 uM after 1.5 hrs by immunoblotting; format: functional, cell-based
RPMI-8226 [29] = experiment: Induction of apoptosis in human RPM18226 cells assessed as reduction of RNA polymerase 2 phosphoserine 2 level at 30 uM after 1.5 hrs by immunoblotting; format: functional, cell-based
NCI-H929 [30] = experiment: Induction of apoptosis in human NCI-H929 cells assessed as changes in survivin protein level at 30 uM after 3 hrs by immunoblotting; format: functional, cell-based
NCI-H929 [31] = experiment: Induction of apoptosis in human NCI-H929 cells assessed as dephosphorylation of pRb at S249/T252 at 30 uM after 1.5 hrs by immunoblotting; format: functional, cell-based
NCI-H929 [32] = experiment: Induction of apoptosis in human NCI-H929 cells assessed as reduction of RNA polymerase 2 phosphoserine 5 level at 30 uM after 1.5 hrs by immunoblotting; format: functional, cell-based
NCI-H929 [33] = experiment: Induction of apoptosis in human NCI-H929 cells assessed as changes in XIAP protein level at 30 uM after 3 hrs by immunoblotting; format: functional, cell-based
NCI-H929 [34] = experiment: Induction of apoptosis in human NCI-H929 cells assessed as changes in Bcl-2 protein level at 30 uM after 3 hrs by immunoblotting; format: functional, cell-based
NCI-H929 [35] = experiment: Induction of apoptosis in human NCI-H929 cells assessed as reduction of total RNA polymerase 2 level at 30 uM after 1.5 hrs by immunoblotting; format: functional, cell-based
RPMI-8226 [36] = experiment: Induction of apoptosis in human RPM18226 cells at 30 uM after 3 hrs using TUNEL staining by flow cytometry; format: functional, cell-based
LP-1 [37] = experiment: Induction of apoptosis in human LP-1 cells assessed as reduction of Mcl-1 protein level at 30 uM after 3 hrs by immunoblotting; format: functional, cell-based
RPMI-8226 [38] = experiment: Induction of apoptosis in human RPM18226 cells at 30 uM after 24 hrs using TUNEL staining by flow cytometry; format: functional
NCI-H929 [39] = experiment: Induction of apoptosis in human NCI-H929 cells assessed as reduction of Hdm2 level at 30 uM after 1.5 hrs by immunoblotting; format: functional, cell-based
NCI-H929 [40] = experiment: Cytotoxicity against human NCI-H929 cells assessed as reduction of cell viability at 20 to 30 uM treated for 16 hrs followed by washout measured after total 72 hrs growth period alamar blue assay relative to control; format: functional, cell-based
LP-1 [41] = experiment: Induction of apoptosis in human LP-1 cells at 30 uM after 3 hrs using TUNEL staining by flow cytometry; format: functional, cell-based
NCI-H929 [42] = experiment: Induction of apoptosis in human NCI-H929 cells assessed as reduction of Mcl-1 protein level at 30 uM after 3 hrs by immunoblotting; format: functional, cell-based
NCI-H929 [43] = experiment: Induction of apoptosis in human NCI-H929 cells at 30 uM after 24 hrs using TUNEL staining by flow cytometry; format: functional
LP-1 [44] = experiment: Induction of apoptosis in human LP-1 cells at 30 uM after 24 hrs using TUNEL staining by flow cytometry; format: functional
NCI-H929 [45] = experiment: Induction of apoptosis in human NCI-H929 cells assessed as effect on total pRb level at 30 uM after 1.5 hrs by immunoblotting; format: functional, cell-based
LP-1 [46] = experiment: Cytotoxicity against human LP-1 cells assessed as reduction of cell viability at 20 to 30 uM treated for 8 hrs followed by washout measured after total 72 hrs growth period alamar blue assay relative to control; format: functional
LP-1 [47] = experiment: Cytotoxicity against human LP-1 cells assessed as reduction of cell viability at 20 to 30 uM treated for 24 hrs followed by washout measured after total 72 hrs growth period alamar blue assay relative to control; format: functional, cell-based
NCI-H929 [48] = experiment: Induction of apoptosis in human NCI-H929 cells assessed as […] slow migrating hyperphosphorylated RNA polymerase 2O form at 30 uM after 1.5 hrs by immunoblotting; format: functional, cell-based

Structure (SMILES): CC(C)C[C@@H](C=O)NC(=O)[C@H](CC(C)C)NC(=O)[C@H](CC(C)C)NC(=O)OCc1ccccc1 (Cbz-Leu-Leu-Leu-aldehyde)
- Activity (LP-1 [1]): Active
- Activity (LP-1 [2]): inactive

Structure (SMILES): OC[C@H]1O[C@@H](n2cnc3cc(Cl)c(Cl)cc32)[C@H](O)[C@@H]1O [DICHLORORIBOBENZIMIDAZOLE]
- IC50 (U-266): 41 µM
- Activity (NCI-H929 [3]): Active
- IC50 (LP-1 [4]): 29.8 µM
- Activity (NCI-H929 [5]): inactive
- Activity (NCI-H929 [6]): Active
- Activity (NCI-H929 [7]): Active
- Ratio IC50 [8]: 25
- Activity (NCI-H929 [9]): Active
- Activity (NCI-H929 [10]): Active
- Activity (NCI-H929 [11]): Active
- Activity (NCI-H929 [12]): inactive
- Activity (NCI-H929 [13]): Active
- IC50 (OPM-2): 29.5 µM
- Activity (NCI-H929 [14]): Active
- Activity (NCI-H929 [15]): Active
- Ratio IC50 [16]: 25
- Activity (NCI-H929 [17]): Active
- Activity (NCI-H929 [18]): Active
- IC50 [19]: 20.1 µM
- Activity (NCI-H929 [20]): Active
- IC50 [21]: 46.8 µM

Structure (SMILES): CC[C@H](CO)Nc1nc(NCc2ccccc2)c2ncn(C(C)C)c2n1 [SELICICLIB]
- Activity (NCI-H929 [22]): Active
- IC50 (U-266): 17.9 µM
- IC50 [23]: 0.81 µM
- IC50 (LP-1 [4]): 12.7 µM
- Activity (RPMI-8226 [24]): Active
- Activity (NCI-H929 [25]): inactive
- Activity (NCI-H929 [26]): Active
- Activity (NCI-H929 [27]): Active
- Activity (LP-1 [28]): Active
- Activity (RPMI-8226 [29]): Active
- Activity (NCI-H929 [30]): Active
- Activity (NCI-H929 [31]): Active
- IC50 (OPM-2): 18.5 µM
- Activity (NCI-H929 [32]): Active
- Activity (NCI-H929 [33]): Active
- Activity (NCI-H929 [34]): Active
- Activity (NCI-H929 [35]): inactive
- Activity (RPMI-8226 [36]): Active
- Activity (LP-1 [37]): Active
- Activity (RPMI-8226 [38]): >=60%
- Activity (NCI-H929 [39]): Active
- Activity (NCI-H929 [40]): Active
- Activity (LP-1 [41]): Active
- Activity (NCI-H929 [42]): Active
- Activity (NCI-H929 [43]): >=60%
- Activity (LP-1 [44]): >=60%
- Activity (NCI-H929 [45]): inactive
- Activity (LP-1 [46]): 50%
- Activity (LP-1 [47]): Active
- Activity (NCI-H929 [48]): Active
- IC50 [21]: 19.5 µM
